The structures appear in SMILES notation.

We go through four molecules from patent publication US20080166805A1, “Culturing human cells and tissues in an N-glycolylneuraminic acid-free environment” (The Regents of the University of California, priority 2005, published 2008).

The subject of the experiment is Caco-2 cells. The experiment can be described thus: Endocytosis inhibition experiments (Neu5Gc uptake in Caco-2 cells). It is filed as cell-based, human. The conditions noted are these: 2 h pre-treatment with drug, then 3 mM Neu5Gc. As to the method: The sonicate was centrifuged at 75×g for 15 min., and the pellet obtained consisted primarily of nuclei and unbroken cells. […] A portion (20%) of the “total homogenate” fraction was taken for protein quantification and Sia analysis by DMB derivatization and HPLC analysis (as discussed below.) The remainder was centrifuged at 100,000×g for 1 h. The resulting pellet, called the “membrane” fraction, was then resuspended by sonication (15 sec.) in 200 μl of sodium acetate buffer, pH 5.5. The 100,000×g supernatant, called the “soluble” fraction was adjusted to 90% ethanol using absolute ice-cold ethanol, and placed overnight at −20° C. The flocculant precipitate, which represents the “soluble protein” fraction, was washed 3 times with 90% ice-cold ethanol and then resuspended in 200 μl of water. The supernatant fluid representing the cytosolic low molecular weight (LMW) fraction was dried and brought up in 100 μL with water prior to Sia analysis. All the Sias in these fractions were released with mild acid hydrolysis if necessary and then analyzed by HPLC after DMB derivatization. Protein quantification was performed on the total homogenate, membrane and soluble protein fractions by using the BCA protein assay kit from Pierce (Rockford, Ill.) In some experiments, the resulting data obtained for the Sia bound to the membrane fraction and to the soluble proteins were pooled and presented here as a High Molecular Weight (HMW) fraction. Sialic Acid Release, DMB Derivatization and HPLC Analysis—The bound Sias from the total homogenate, membrane and soluble protein fractions were released using 2M acetic acid hydrolysis, 3 h. at 80° C. The released Sias, or free Sias, contained in the soluble LMW fraction were passed through a Microcon® YM-10 filter (Millipore, Bedford, Mass.) prior to DMB derivatization, which was done according to Hara et al., 1989. […] The eluant was monitored by fluorescence. Quantification of Sias—For all HPLC chromatograms, the quantification of Sias was done by comparison with known quantities of DMB derivatized Neu5Gc and Neu5Ac used as standards and then reported in terms of pmoles of Sia. For total homogenate, membrane and cytosolic protein fractions, this number was expressed per mg of protein. Due to minor sample-to-sample variations in amounts and recoveries, the data in the Figures is presented as percent of Neu5Gc over total Sias, rather than as absolute amounts. Endocytosis Inhibition Experiments—Caco-2 or normal fibroblast cells were split and cultured in alpha-MEM media supplemented respectively with 20% or 15% human serum for 4 days before starting the endocytosis drug inhibition experiments in order to deplete any Neu5Gc derived from FCS. Cells were then pre-treated for 2 h. with the specific inhibitors under the same culture conditions. Fresh media containing the same amount of inhibitor and 3 mM of Neu5Gc was then added to the cells, which were incubated for 16 h or 3 days and finally harvested and fractionated as described above.

As for `N=C(N)NC(=O)c1nc(Cl)c(N)nc1N` [amiloride], the “Neu5Gc incorporation into membrane-bound glycoconjugates in the presence of inhibitor (percent of total Sia)” value is on record as 10%.
On the same count and under the same terms, under `CN(C)CCCN1c2ccccc2Sc2ccc(Cl)cc21` [chlorpromazine] stands 50%.
For `O=c1c(-c2ccc(O)cc2)coc2cc(O)cc(O)c12` [genistein], the “Neu5Gc incorporation into membrane-bound glycoconjugates in the presence of inhibitor (percent of total Sia)” value came out at 34% and the “incorporation of Neu5Gc in the TH fraction in the presence of inhibitor (percent of total Sia)” value was determined as 51%.
The matching figures for `C[C@@H]1[C@H](O)[C@@H](C)/C=C/C=C/CC/C=C/C=C/C=C/C=C/C(O[C@H]2O[C@H](C)[C@@H](O)[C@H](N)[C@@H]2O)CC2O[C@](O)(CC(O)C(O)CCC(O)CC(O)CC(O)CC(=O)O[C@H]1C)CC(O)C2C(=O)O` (stereo partly drawn) [nystatin]: 44% and about 65%.
